Source: BindingDB's records for doi:10.1016/j.bioorg.2014.05.003 (Comsats Institute of Information Technology, 2014)
pIC50: −log10 of the molar value.

Target: Alpha-glucosidase MAL12 (Saccharomyces cerevisiae (strain ATCC 204508 / S288c), UniProt P53341)
Assay: Glucosidase assay
Conditions: pH 6.8; 37 °C
Protocol: Reaction mixture (100 µL) contained 70 µL 50 mM Na2HPO4 buffer, pH 6.8, 10 µL test compound (0.5 mM), followed by the addition of 10 µL enzyme (0.0234 units). The mixture was pre-incubated for 10 min at 37 °C and pre-read at 400 nm. The reaction was initiated by the addition of 10 µL of 0.5 mM substrate (p-nitrophenyl glucopyranoside) and incubated at 37 °C for 30 min. The absorbance of p-nitrophenol was measured at 400 nm.

Alpha-glucosidase MAL12, sequence (P53341 whole entry): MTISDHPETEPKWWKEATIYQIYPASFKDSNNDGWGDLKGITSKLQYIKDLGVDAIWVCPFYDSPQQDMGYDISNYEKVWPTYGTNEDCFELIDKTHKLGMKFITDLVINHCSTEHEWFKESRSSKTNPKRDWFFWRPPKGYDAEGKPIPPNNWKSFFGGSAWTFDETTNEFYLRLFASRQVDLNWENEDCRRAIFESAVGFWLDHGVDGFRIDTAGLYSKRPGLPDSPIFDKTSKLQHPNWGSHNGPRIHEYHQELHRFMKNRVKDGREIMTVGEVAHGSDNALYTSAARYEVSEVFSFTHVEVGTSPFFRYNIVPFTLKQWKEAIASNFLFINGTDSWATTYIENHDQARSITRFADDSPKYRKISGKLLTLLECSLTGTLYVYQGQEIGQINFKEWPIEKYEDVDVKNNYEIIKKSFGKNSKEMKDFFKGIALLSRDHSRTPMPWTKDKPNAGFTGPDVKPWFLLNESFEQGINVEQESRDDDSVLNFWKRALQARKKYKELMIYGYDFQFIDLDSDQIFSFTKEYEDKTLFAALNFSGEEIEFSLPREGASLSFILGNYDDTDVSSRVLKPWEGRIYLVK

Compound | pIC50
CCOC(=O)[C@H]1[C@@H]2NC(=O)NC1(C)Oc1ccccc12 [(+-)2,6-Methano-4-oxo-3,4,5,6-tetrahydro-2H-[1,3,5]benzoxadiazocines (4d)] | 3.91
CCOC(=O)C1C(C)=NC(=O)NC1c1ccc(Cl)cc1 (stereo unspecified) [Ethyl 4-(4-chlorophenyl)-6-methyl-2-oxo-1,2,3,4-tetrahydropyrimidine-5-carboxylate (4b)] | 3.67
CCOC(=O)C1C(C)=NC(=O)NC1c1ccccc1 (stereo unspecified) [Ethyl 6-methyl-2-oxo-4-phenyl-1,2,3,4-tetrahydropyrimidine-5-carboxylate (4a)] | 3.84
CCOC(=O)C1C(C)=NC(=S)NC1c1ccc(C)cc1 (stereo unspecified) [Ethyl 6-methyl-4-(4-methylphenyl)-2-thioxo-1,2,3,4-tetrahydropyrimidine-5-carboxylate (4l)] | 3.90

Continued by rising pIC50, values first:

pIC50 | Compound
3.52 | CCOC(=O)C1C(C)=NC(=O)NC1c1ccc(O)c(OC)c1 (stereo unspecified) [Ethyl 4-(4-hydroxy-3-methoxyphenyl)-6-methyl-2-oxo-1,2,3,4-tetrahydropyrimidine-5-carboxylate (4e)]
3.95 | CCOC(=O)C1C(C)=NC(=O)NC1c1ccc(C)cc1 (stereo unspecified) [Ethyl 6-methyl-4-(4-methylphenyl)-2-oxo-1,2,3,4-tetrahydropyrimidine-5-carboxylate (4f)]
